Measured values from patent publication US7728028B2, “Substituted imidazoline compounds” (Gruenenthal GmbH, priority 2005, dated 2010).

target: T1, human μ-opiate receptor (Homo sapiens, UniProt P35372); assay: Affinity for the human μ-opiate receptor ([3H]-naloxone displacement, SPA); conditions: Table 1, aldehydes; test substance 1 μmole/l; inhibition of specific [3H]-naloxone binding; CHO-K1 membranes; read-out: μ-Opioid receptor, % inhibition [1 μM]
T1 construct: purchased PerkinElmer Life Sciences, Zaventem, Belgium RB-HOM; host or cells: CHO-K1 cells (recombinant expression; membrane preparation)
Protocol: Investigations on the Efficacy of the Compounds According to the Invention Method for Determining the Affinity for the Human μ-Opiate Receptor
The receptor affinity for the human μ-opiate receptor is determined in a homogeneous batch in microtiter plates. For this purpose dilution series of the substances to be tested are incubated with a receptor membrane preparation (15-40 μg protein/250 μl incubation batch) of CHO-K1 cells, which express the human μ-opiate receptor (RB-HOM receptor membrane preparation from PerkinElmer Life Sciences, Zaventem, Belgium), in the presence of 1 nmole/l of the radioactive ligand [^3H]-naloxone (NET719, PerkinElmer Life Sciences company, Zaventem, Belgium) and 1 mg WGA-SPA beads (wheat germ agglutinin SPA beads from Amersham/Pharmacia, Freiburg, Germany) in a total volume of 250 μl for 90 minutes at room temperature. 50 mmole/l of Tris-HCl supplemented with 0.06% bovine serum albumin is used as incubation buffer. In order to determine the non-specific binding, 100 μmole/l of naloxone is additionally added. After the end of the 90 minutes' incubation time the microtiter plates are centrifuged for 20 minutes at 1000 g and the radioactivity is measured in a beta counter (Microbeta-Trilux, PerkinElmer Wallac, Freiburg, Germany). The percentage displacement of the radioactive ligand from its binding to the human μ-opiate receptor at a concentration of the test substances of 1 μmole/l is determined and is given as percentage inhibition of the specific binding.

T1 sequence (P35372 whole entry): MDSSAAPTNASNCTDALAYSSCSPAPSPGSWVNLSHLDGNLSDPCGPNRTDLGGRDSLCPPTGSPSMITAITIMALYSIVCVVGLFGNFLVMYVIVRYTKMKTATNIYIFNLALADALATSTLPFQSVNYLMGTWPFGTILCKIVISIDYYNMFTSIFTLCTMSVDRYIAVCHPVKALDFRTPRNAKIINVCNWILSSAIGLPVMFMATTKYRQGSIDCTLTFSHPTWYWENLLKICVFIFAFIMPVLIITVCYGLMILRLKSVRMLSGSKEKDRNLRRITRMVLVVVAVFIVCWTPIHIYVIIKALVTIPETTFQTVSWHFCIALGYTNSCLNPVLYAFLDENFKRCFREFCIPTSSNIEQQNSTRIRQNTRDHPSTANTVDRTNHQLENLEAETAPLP

Structure (SMILES)	inhibition at 1 µM [%]
CN(C)C(c1cccs1)C1CCC(CC=O)CC1 (centres unmarked) [Example 10d, {4-[dimethylamino-thiophen-2-yl-methyl]-cyclohexyl}-acetaldehyde]	79
CN(C)C(c1cccc(F)c1)C1CCC(CC=O)CC1 (centres unmarked) [Example 10b, {4-[dimethylamino-(3-fluorophenyl)-methyl]-cyclohexyl}-acetaldehyde]	67
CN(C)C(c1ccc(Cl)cc1)C1CCC(C=O)CC1 (centres unmarked) [Example 9c, 4-[(4-chlorophenyl)-dimethylaminomethyl]-cyclohexane-carbaldehyde]	45

same assay, conditions: Table 2, Examples 11-161; test substance 1 μmole/l; inhibition of specific [3H]-naloxone binding; CHO-K1 membranes; read-out: μ-Opioid receptor, % inhibition [1 μM]

Structure (SMILES)	inhibition at 1 µM [%]
CCCN1C=NC(CCC(=O)OC)(C(=O)OC)C1CC1CCC(C(c2cccc(F)c2)N(C)C)CC1 (centres unmarked) [Example 157, 5-{4-[dimethylamino-(3-fluorophenyl)-methyl]-cyclohexylmethyl}-4-(2-methoxycarbonylethyl)-1-propyl-4,5-dihydro-1H-imidazole-4-carboxylic acid methyl ester]	91
COC(=O)C1(CCSC)N=CN(C2CCCCC2)C1CC1CCC(C(c2ccc(F)cc2)N(C)C)CC1 (centres unmarked) [Example 106, 1-cyclohexyl-5-{4-[dimethylamino-(4-fluorophenyl)-methyl]-cyclohexylmethyl}-4-(2-methylsulfanyl-ethyl)-4,5-dihydro-1H-imidazole-4-carboxylic acid methyl ester]	92
COC(=O)CCC1(C(=O)OC)N=CN(C2CCCCC2)C1CC1CCC(C(c2ccc(Cl)cc2)N(C)C)CC1 (centres unmarked) [Example 53, 5-{4-[(4-chlorophenyl)-dimethylaminomethyl]-cyclohexylmethyl}-1-cyclohexyl-4-(2-methoxycarbonylethyl)-4,5-dihydro-1H-imidazole-4-carboxylic acid methyl ester]	96
CCCC1(C(=O)OC)N=CN(C2CCCCC2)C1CC1CCC(C(CCc2ccccc2)N(C)C)CC1 (centres unmarked) [Example 108, 1-cyclohexyl-5-[4-(1-dimethylamino-3-phenylpropyl)-cyclohexylmethyl]-4-propyl-4,5-dihydro-1H-imidazole-4-carboxylic acid methyl ester]	86
CCCN1C=NC(CSC)(C(=O)OC)C1CC1CCC(C(c2cccc(F)c2)N(C)C)CC1 (centres unmarked) [Example 158, 5-{4-[dimethylamino-(3-fluorophenyl)-methyl]-cyclohexylmethyl}-4-methylsulfanylmethyl-1-propyl-4,5-dihydro-1H-imidazole-4-carboxylic acid methyl ester]	95
COC(=O)C1(CSCc2ccccc2)N=CN(C2CCCCC2)C1CC1CCC(C(c2cccc(F)c2)N(C)C)CC1 (centres unmarked) [Example 150, 4-benzylsulfanylmethyl-1-cyclohexyl-5-{4-[dimethylamino-(3-fluorophenyl)-methyl]-cyclohexylmethyl}-4,5-dihydro-1H-imidazole-4-carboxylic acid methyl ester]	98
COC(=O)C1(CSCc2ccccc2)N=CN(CCc2ccccc2)C1C1CCC(C(c2cccc(F)c2)N(C)C)CC1 (centres unmarked) [Example 92, 4-benzylsulfanylmethyl-5-{4-[dimethylamino-(3-fluorophenyl)-methyl]-cyclohexyl}-1-phenethyl-4,5-dihydro-1H-imidazole-4-carboxylic acid methyl ester]	95
COC(=O)C1(CC(C)C)N=CN(Cc2ccccc2)C1CC1CCC(C(c2ccc(Cl)cc2)N(C)C)CC1 (centres unmarked) [Example 50, 1-benzyl-5-{4-[(4-chlorophenyl)-dimethylaminomethyl]-cyclohexylmethyl}-4-isobutyl-4,5-dihydro-1H-imidazole-4-carboxylic acid methyl ester]	94
CCCN1C=NC(CCSC)(C(=O)OC)C1CC1CCC(C(c2ccc(F)cc2)N(C)C)CC1 (centres unmarked) [Example 119, 5-{4-[dimethylamino-(4-fluorophenyl)-methyl]-cyclohexylmethyl}-4-(2-methylsulfanylethyl)-1-propyl-4,5-dihydro-1H-imidazole-4-carboxylic acid methyl ester]	90
CCCCN1C=NC(CCC(=O)OC)(C(=O)OC)C1CC1CCC(C(CCc2ccccc2)N(C)C)CC1 (centres unmarked) [Example 78, 1-butyl-5-[4-(1-dimethylamino-3-phenylpropyl)-cyclohexylmethyl]-4-(2-methoxycarbonylethyl)-4,5-dihydro-1H-imidazole-4-carboxylic acid methyl ester]	67
CCCN1C=NC(CCC)(C(=O)OC)C1CC1CCC(C(CCc2ccccc2)N(C)C)CC1 (centres unmarked) [Example 120, 5-[4-(1-dimethylamino-3-phenylpropyl)-cyclohexylmethyl]-1,4-dipropyl-4,5-dihydro-1H-imidazole-imidazole-4-carboxylic acid methyl ester]	62
COC(=O)C1(CC(C)C)N=CN(Cc2ccccc2)C1C1CCC(C(c2ccc(Cl)cc2)N(C)C)CC1 (centres unmarked) [Example 48, 1-benzyl-5-{4-[(4-chlorophenyl)-dimethylaminomethyl]-cyclohexyl}-4-isobutyl-4,5-dihydro-1H-imidazole-4-carboxylic acid methyl ester]	93
COC(=O)C1(Cc2ccc(Cl)cc2)N=CN(C2CCCCC2)C1C1CCC(C(c2ccc(Cl)cc2)N(C)C)CC1 (centres unmarked) [Example 15, 4-(4-chlorobenzyl)-5-{4-[(4-chlorophenyl)-dimethylaminomethyl]-cyclohexyl}-1-cyclohexyl-4,5-dihydro-1H-imidazole-4-carboxylic acid methyl ester]	76
CCCCN1C=NC(CC(C)C)(C(=O)OC)C1CC1CCC(C(c2ccc(Cl)cc2)N(C)C)CC1 (centres unmarked) [Example 34, 1-butyl-5-{4-[(4-chlorophenyl)-dimethylaminomethyl]-cyclohexylmethyl}-4-isobutyl-4,5-dihydro-1H-imidazole-4-carboxylic acid methyl ester]	98
COC(=O)CCC1(C(=O)OC)N=CN(C2CCCCC2)C1CC1CCC(C(CCc2ccccc2)N(C)C)CC1 (centres unmarked) [Example 154, 1-cyclohexyl-5-[4-(1-dimethylamino-3-phenylpropyl)-cyclohexylmethyl]-4-(2-methoxycarbonylethyl)-4,5-dihydro-1H-imidazole-4-carboxylic acid methyl ester]	82
CCCN1C=NC(CSC)(C(=O)OC)C1CC1CCC(C(c2ccc(Cl)cc2)N(C)C)CC1 (centres unmarked) [Example 63, 5-{4-[(4-chlorophenyl)-dimethylaminomethyl]-cyclohexylmethyl}-4-methylsulfanylmethyl-1-propyl-4,5-dihydro-1H-imidazole-4-carboxylic acid methyl ester]	97
COC(=O)CCC1(C(=O)OC)N=CN(Cc2ccccc2)C1CC1CCC(C(c2ccc(Cl)cc2)N(C)C)CC1 (centres unmarked) [Example 99, 1-benzyl-5-{4-[(4-chlorophenyl)-dimethylaminomethyl]-cyclohexylmethyl}-4-(2-methoxycarbonylethyl)-4,5-dihydro-1H-imidazole-4-carboxylic acid methyl ester]	100
CCCCC1(C(=O)OC)N=CN(CCC)C1C1CCC(C(c2cccc(F)c2)N(C)C)CC1 (centres unmarked) [Example 23, 4-butyl-5-{4-[dimethylamino-(3-fluorophenyl)-methyl]-cyclohexyl}-1-propyl-4,5-dihydro-1H-imidazole-4-carboxylic acid methyl ester]	76
COC(=O)C1(Cc2ccc(Cl)cc2)N=CN(C2CCCCC2)C1CC1CCC(C(c2ccc(Cl)cc2)N(C)C)CC1 (centres unmarked) [Example 18, 4-(4-chlorobenzyl)-5-{4-[(4-chlorophenyl)-dimethylaminomethyl]-cyclohexylmethyl}-1-cyclohexyl-4,5-dihydro-1H-imidazole-4-carboxylic acid methyl ester]	90
COC(=O)C1(Cc2ccc(Cl)cc2)N=CN(CCc2ccccc2)C1C1CCC(C(c2cccc(F)c2)N(C)C)CC1 (centres unmarked) [Example 38, 4-(4-chlorobenzyl)-5-{4-[dimethylamino-(3-fluorophenyl)-methyl]-cyclohexyl}-1-phenethyl-4,5-dihydro-1H-imidazole-4-carboxylic acid methyl ester]	84
COC(=O)C1(Cc2ccc(Cl)cc2)N=CN(Cc2ccccc2)C1C1CCC(C(c2cccc(F)c2)N(C)C)CC1 (centres unmarked) [Example 47, 1-benzyl-4-(4-chlorobenzyl)-5-{4-[dimethylamino-(3-fluorophenyl)-methyl]-cyclohexyl}-4,5-dihydro-1H-imidazole-4-carboxylic acid methyl ester]	74
CCCN1C=NC(CSC)(C(=O)OC)C1CC1CCC(C(c2ccc(F)cc2)N(C)C)CC1 (centres unmarked) [Example 160, 5-{4-[dimethylamino-(4-fluorophenyl)-methyl]-cyclohexylmethyl}-4-methylsulfanylmethyl-1-propyl-4,5-dihydro-1H-imidazole-4-carboxylic acid methyl ester]	74
COC(=O)C1(CSCc2ccccc2)N=CN(C2CCCCC2)C1CC1CCC(C(CCc2ccccc2)N(C)C)CC1 (centres unmarked) [Example 156, 4-benzylsulfanylmethyl-1-cyclohexyl-5-[4-(1-dimethylamino-3-phenylpropyl)-cyclohexylmethyl]-4,5-dihydro-1H-imidazole-4-carboxylic acid methyl ester]	92
